Counter-ions that a name gives are not always drawn. Like-named read-outs stand apart in the source and are kept apart here.
How the values were obtained:
Assay in all cases: AK assay 384-well format, Prestwick library screening
[1] = tested on: A. baumannii strain 98-37-09; format: cell-based, Acinetobacter baumannii; conditions: 50 μM final drug concentration; for fold induction at 50 µM: Acinetobacter baumannii, 983709, 3 h
K. pneumoniae = format: cell-based, Klebsiella pneumoniae; conditions: 50 μM final drug concentration; for fold induction at 50 µM: Klebsiella pneumoniae, 3 h
E. faecium = format: cell-based, Enterococcus faecium; conditions: 50 μM final drug concentration; for fold induction at 50 µM: Enterococcus faecium, 3 h
E. coli = format: cell-based, Escherichia coli; conditions: 50 μM final drug concentration; for fold induction at 50 µM: Escherichia coli, 3 h
P. aeruginosa = format: cell-based, Pseudomonas aeruginosa; conditions: 50 μM final drug concentration; for fold induction at 50 µM: Pseudomonas aeruginosa, 3 h
[2] = tested on: S. aureus strain USA300-0114; format: cell-based, Staphylococcus aureus; conditions: 50 μM final drug concentration; for fold induction at 50 µM: Staphylococcus aureus, USA300, 3 h
E. cloacae = format: cell-based, Enterobacter cloacae; conditions: 50 μM final drug concentration; for fold induction at 50 µM: Enterobacter cloacae, 3 h
[3] = planktonic, cutoff for positive-scoring molecules 3-fold increase
[4] = 384-well format, cutoff for positive-scoring molecules 3-fold increase, read-out: AK-based Prestwick Library Screening Results, A. baumannii (increase in extracellular AK activity)
[5] = 384-well format, cutoff for positive-scoring molecules 3-fold increase, read-out: AK-based Prestwick Library Screening Results, K. pneumoniae (increase in extracellular AK activity)
[6] = 384-well format, cutoff for positive-scoring molecules 3-fold increase, read-out: AK-based Prestwick Library Screening Results, E. faecium (increase in extracellular AK activity)
[7] = 384-well format, cutoff for positive-scoring molecules 3-fold increase, read-out: AK-based Prestwick Library Screening Results, E. coli (increase in extracellular AK activity)
[8] = 384-well format, cutoff for positive-scoring molecules 3-fold increase, read-out: AK-based Prestwick Library Screening Results, P. aeruginosa (increase in extracellular AK activity)
[9] = 384-well format, cutoff for positive-scoring molecules 3-fold increase, read-out: AK-based Prestwick Library Screening Results, S. aureus (increase in extracellular AK activity)
[10] = 384-well format, cutoff for positive-scoring molecules 3-fold increase, read-out: AK-based Prestwick Library Screening Results, E. cloacae (increase in extracellular AK activity)

CC(CNC1CCCCC1)OC(=O)c1ccccc1 (stereo not drawn) [Hexylcaine hydrochloride]
fold induction at 50 µM ([1]; cutoff for positive-scoring molecules 3-fold increase, read-out: AK-based Prestwick Library Screening Results, A. baumannii (fold increase in extracellular AK activity)): 1.3 | fold induction at 50 µM (K. pneumoniae; cutoff for positive-scoring molecules 3-fold increase, read-out: AK-based Prestwick Library Screening Results, K. pneumoniae (fold increase in extracellular AK activity)): 1 | fold induction at 50 µM (E. faecium; cutoff for positive-scoring molecules 3-fold increase, read-out: AK-based Prestwick Library Screening Results, E. faecium (fold increase in extracellular AK activity)): 1 | fold induction at 50 µM (E. coli; cutoff for positive-scoring molecules 3-fold increase, read-out: AK-based Prestwick Library Screening Results, E. coli (fold increase in extracellular AK activity)): 1.2 | fold induction at 50 µM (P. aeruginosa; cutoff for positive-scoring molecules 3-fold increase, read-out: AK-based Prestwick Library Screening Results, P. aeruginosa (fold increase in extracellular AK activity)): 1.1 | fold induction at 50 µM ([2]; cutoff for positive-scoring molecules 3-fold increase, read-out: AK-based Prestwick Library Screening Results, S. aureus (fold increase in extracellular AK activity)): 1.3 | fold induction at 50 µM (E. cloacae; cutoff for positive-scoring molecules 3-fold increase, read-out: AK-based Prestwick Library Screening Results, E. cloacae (fold increase in extracellular AK activity)): 1.4

CN1CCC2=C[C@H](O)[C@H]3OC(=O)c4cc5c(cc4[C@H]3[C@@H]21)OCO5 [Hippeastrine hydrobromide]
AK-based Prestwick Library Screening Results, A. baumannii (fold increase in extracellular AK activity) [1, 3]: 0.8 | AK-based Prestwick Library Screening Results, K. pneumoniae (fold increase in extracellular AK activity) (K. pneumoniae; [3]): 0.6 | AK-based Prestwick Library Screening Results, E. faecium (fold increase in extracellular AK activity) (E. faecium; [3]): 0.9 | AK-based Prestwick Library Screening Results, E. coli (fold increase in extracellular AK activity) (E. coli; [3]): 0.9 | AK-based Prestwick Library Screening Results, P. aeruginosa (fold increase in extracellular AK activity) (P. aeruginosa; [3]): 0.9 | AK-based Prestwick Library Screening Results, S. aureus (fold increase in extracellular AK activity) [2, 3]: 0.7 | AK-based Prestwick Library Screening Results, E. cloacae (fold increase in extracellular AK activity) (E. cloacae; [3]): 1.4

CN1CCCN(C(c2ccccc2)c2ccc(Cl)cc2)CC1 (stereo not drawn) [Homochlorcyclizine dihydrochloride]
fold induction at 50 µM ([1]; planktonic A. baumannii, 384-well, […], read-out: AK-based Prestwick Library Screening Results: A. baumannii (increase in extracellular AK activity)): 1.2 | fold induction at 50 µM (K. pneumoniae; planktonic K. pneumoniae, 384-well, […], read-out: AK-based Prestwick Library Screening Results: K. pneumoniae (increase in extracellular AK activity)): 1.1 | fold induction at 50 µM (E. faecium; planktonic E. faecium, 384-well, […], read-out: AK-based Prestwick Library Screening Results: E. faecium (increase in extracellular AK activity)): 1.2 | fold induction at 50 µM (E. coli; planktonic E. coli, 384-well, […], read-out: AK-based Prestwick Library Screening Results: E. coli (increase in extracellular AK activity)): 1.5 | fold induction at 50 µM (P. aeruginosa; planktonic P. aeruginosa, 384-well, […], read-out: AK-based Prestwick Library Screening Results: P. aeruginosa (increase in extracellular AK activity)): 1.2 | fold induction at 50 µM ([2]; planktonic S. aureus, 384-well, […], read-out: AK-based Prestwick Library Screening Results: S. aureus (increase in extracellular AK activity)): 1 | fold induction at 50 µM (E. cloacae; planktonic E. cloacae, 384-well, […], read-out: AK-based Prestwick Library Screening Results: E. cloacae (increase in extracellular AK activity)): 1.8

CC1CC(OC(=O)c2ccccc2O)CC(C)(C)C1 (stereo not drawn) [Homosalate]
fold induction at 50 µM ([1]; planktonic A. baumannii, positive cutoff 3-fold increase, read-out: AK-based Prestwick library screening result, A. baumannii (fold increase in extracellular AK activity)): 1.8 | fold induction at 50 µM (K. pneumoniae; planktonic K. pneumoniae, positive cutoff 3-fold increase, read-out: AK-based Prestwick library screening result, K. pneumoniae (fold increase in extracellular AK activity)): 1.1 | fold induction at 50 µM (E. faecium; planktonic E. faecium, positive cutoff 3-fold increase, read-out: AK-based Prestwick library screening result, E. faecium (fold increase in extracellular AK activity)): 1.1 | fold induction at 50 µM (E. coli; planktonic E. coli, positive cutoff 3-fold increase, read-out: AK-based Prestwick library screening result, E. coli (fold increase in extracellular AK activity)): 1.3 | fold induction at 50 µM (P. aeruginosa; planktonic P. aeruginosa, positive cutoff 3-fold increase, read-out: AK-based Prestwick library screening result, P. aeruginosa (fold increase in extracellular AK activity)): 1.1 | fold induction at 50 µM ([2]; planktonic S. aureus, positive cutoff 3-fold increase, read-out: AK-based Prestwick library screening result, S. aureus (fold increase in extracellular AK activity)): 1.2 | fold induction at 50 µM (E. cloacae; planktonic E. cloacae, positive cutoff 3-fold increase, read-out: AK-based Prestwick library screening result, E. cloacae (fold increase in extracellular AK activity)): 1.5

CCN(CC)CCNc1ccc(CO)c2sc3ccccc3c(=O)c12 [Hycanthone]
fold induction at 50 µM ([1]; planktonic A. baumannii, cutoff for positive-scoring molecules 3-fold increase, read-out: AK-based Prestwick Library Screening Results, A. baumannii (increase in extracellular AK activity)): 0.8 | fold induction at 50 µM (K. pneumoniae; planktonic K. pneumoniae, cutoff for positive-scoring molecules 3-fold increase, read-out: AK-based Prestwick Library Screening Results, K. pneumoniae (increase in extracellular AK activity)): 0.7 | fold induction at 50 µM (E. faecium; planktonic E. faecium, cutoff for positive-scoring molecules 3-fold increase, read-out: AK-based Prestwick Library Screening Results, E. faecium (increase in extracellular AK activity)): 1.2 | fold induction at 50 µM (E. coli; planktonic E. coli, cutoff for positive-scoring molecules 3-fold increase, read-out: AK-based Prestwick Library Screening Results, E. coli (increase in extracellular AK activity)): 0.9 | fold induction at 50 µM (P. aeruginosa; planktonic P. aeruginosa, cutoff for positive-scoring molecules 3-fold increase, read-out: AK-based Prestwick Library Screening Results, P. aeruginosa (increase in extracellular AK activity)): 0.8 | fold induction at 50 µM ([2]; planktonic S. aureus, cutoff for positive-scoring molecules 3-fold increase, read-out: AK-based Prestwick Library Screening Results, S. aureus (increase in extracellular AK activity)): 0.8 | fold induction at 50 µM (E. cloacae; planktonic E. cloacae, cutoff for positive-scoring molecules 3-fold increase, read-out: AK-based Prestwick Library Screening Results, E. cloacae (increase in extracellular AK activity)): 1.1

COc1ccc2c(c1OC)C(=O)O[C@@H]2[C@H]1c2cc3c(cc2CCN1C)OCO3 [Hydrastine hydrochloride]
fold induction at 50 µM ([1]; planktonic A. baumannii, […], read-out: AK-based Prestwick Library Screening Results, A. baumannii (increase in extracellular AK activity)): 1 | fold induction at 50 µM (K. pneumoniae; planktonic K. pneumoniae, […], read-out: AK-based Prestwick Library Screening Results, K. pneumoniae (increase in extracellular AK activity)): 0.8 | fold induction at 50 µM (E. faecium; planktonic E. faecium, […], read-out: AK-based Prestwick Library Screening Results, E. faecium (increase in extracellular AK activity)): 1 | fold induction at 50 µM (E. coli; planktonic E. coli, […], read-out: AK-based Prestwick Library Screening Results, E. coli (increase in extracellular AK activity)): 0.9 | fold induction at 50 µM (P. aeruginosa; planktonic P. aeruginosa, […], read-out: AK-based Prestwick Library Screening Results, P. aeruginosa (increase in extracellular AK activity)): 0.9 | fold induction at 50 µM ([2]; planktonic S. aureus, […], read-out: AK-based Prestwick Library Screening Results, S. aureus (increase in extracellular AK activity)): 0.6 | fold induction at 50 µM (E. cloacae; planktonic E. cloacae, […], read-out: AK-based Prestwick Library Screening Results, E. cloacae (increase in extracellular AK activity)): 0.9

CN1CCc2cc3c(cc2C1O)OCO3 (stereo not drawn) [Hydrastinine hydrochloride]
fold induction at 50 µM [1, 4]: 0.9 | fold induction at 50 µM (K. pneumoniae; [5]): 0.8 | fold induction at 50 µM (E. faecium; [6]): 0.9 | fold induction at 50 µM (E. coli; [7]): 1 | fold induction at 50 µM (P. aeruginosa; [8]): 0.9 | fold induction at 50 µM [2, 9]: 0.7 | fold induction at 50 µM (E. cloacae; [10]): 1.2

NS(=O)(=O)c1cc2c(cc1Cl)NCNS2(=O)=O [Hydrochlorothiazide]
fold induction at 50 µM [1, 4]: 0.5 | fold induction at 50 µM (K. pneumoniae; [5]): 0.6 | fold induction at 50 µM (E. faecium; [6]): 1.1 | fold induction at 50 µM (E. coli; [7]): 0.5 | fold induction at 50 µM (P. aeruginosa; [8]): 0.5 | fold induction at 50 µM [2, 9]: 0.5 | fold induction at 50 µM (E. cloacae; [10]): 0.4

C[C@]12CCC(=O)C=C1CC[C@@H]1[C@@H]2[C@@H](O)C[C@@]2(C)[C@H]1CC[C@]2(O)C(=O)CO [Hydrocortisone base]
AK-based Prestwick Library Screening Results, A. baumannii (increase in extracellular AK activity) ([1]; planktonic A. baumannii, cutoff for positive-scoring molecules 3-fold increase): 1.3 | AK-based Prestwick Library Screening Results, K. pneumoniae (increase in extracellular AK activity) (K. pneumoniae; planktonic K. pneumoniae, cutoff for positive-scoring molecules 3-fold increase): 0.9 | AK-based Prestwick Library Screening Results, E. faecium (increase in extracellular AK activity) (E. faecium; planktonic E. faecium, cutoff for positive-scoring molecules 3-fold increase): 1.0 | AK-based Prestwick Library Screening Results, E. coli (increase in extracellular AK activity) (E. coli; planktonic E. coli, cutoff for positive-scoring molecules 3-fold increase): 1.1 | AK-based Prestwick Library Screening Results, P. aeruginosa (increase in extracellular AK activity) (P. aeruginosa; planktonic P. aeruginosa, cutoff for positive-scoring molecules 3-fold increase): 1.1 | AK-based Prestwick Library Screening Results, S. aureus (increase in extracellular AK activity) ([2]; planktonic S. aureus, cutoff for positive-scoring molecules 3-fold increase): 1.3 | AK-based Prestwick Library Screening Results, E. cloacae (increase in extracellular AK activity) (E. cloacae; planktonic E. cloacae, cutoff for positive-scoring molecules 3-fold increase): 1.4

— patent publication US10004701B2, “Methods and compositions for treating infection” (UNIVERSITY OF ROCHESTER, priority 2012, dated 2018)
